Data on eleven molecules can be found in patent publication US7846945B2, “Piperdine-based inhibitors of sodium glucose co-transporter 2 and methods of their use” (Lexicon Pharmaceuticals, Inc., priority 2007, dated 2010).

SMILES strings stand for the structures. Where only a bound is given, the exact number is not on record here.

For the assay, the target named is T1, Human sodium/glucose co-transporter type 2 (SGLT2) (Homo sapiens, UniProt P31639).
T1 construct: HA; expressed in transfected cells
T1 sequence (P31639 1-672): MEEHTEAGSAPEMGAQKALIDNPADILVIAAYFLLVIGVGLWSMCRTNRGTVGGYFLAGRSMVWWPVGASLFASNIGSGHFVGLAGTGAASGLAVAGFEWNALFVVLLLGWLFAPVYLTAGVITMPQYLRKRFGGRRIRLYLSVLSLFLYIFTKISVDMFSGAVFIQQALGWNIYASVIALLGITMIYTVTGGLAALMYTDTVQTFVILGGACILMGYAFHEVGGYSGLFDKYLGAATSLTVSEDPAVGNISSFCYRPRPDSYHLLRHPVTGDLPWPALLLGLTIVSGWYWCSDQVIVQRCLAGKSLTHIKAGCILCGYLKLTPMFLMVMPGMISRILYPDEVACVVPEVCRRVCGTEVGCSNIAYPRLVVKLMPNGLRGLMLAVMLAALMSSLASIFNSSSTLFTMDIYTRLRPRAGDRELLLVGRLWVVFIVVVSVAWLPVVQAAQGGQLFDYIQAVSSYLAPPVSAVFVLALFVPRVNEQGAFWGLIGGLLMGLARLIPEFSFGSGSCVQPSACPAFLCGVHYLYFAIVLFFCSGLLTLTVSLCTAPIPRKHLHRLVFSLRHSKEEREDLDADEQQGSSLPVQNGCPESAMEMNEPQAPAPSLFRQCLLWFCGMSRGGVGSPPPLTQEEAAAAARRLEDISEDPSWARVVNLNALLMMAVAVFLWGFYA
The experiment in a line: In vitro human SGLT2 inhibition assay (14C-AMG uptake). The conditions noted are these: HEK293 cells expressing human HA-SGLT2; potent = SGLT2 IC50 of less than about 500 nM; read-out: SGLT2 IC50 (potent SGLT2 inhibitor mark). The assay is classed as cell-based. The protocol:
HEK293 cells were transfected with the human HA-SGLT2-pIRESpuro2 vector and the bulk stable cell line was selected in presence of 0.5 μg/ml of puromycin. Human HA-SGLT2 cells were maintained in DMEM media containing 10% FBS, 1% GPS and 0.5 μg/ml of puromycin.
The HEK293 cells expressing the human HA-SGLT2 were seeded in 384 well plates (30,000 cells/well) in DMEM media containing 10% FBS, 1% GPS and 0.5 μg/ml of puromycin, then incubated overnight at 37 C, 5% CO2. Cells were then washed with uptake buffer (140 mM NaCl, 2 mM KCl, 1 mM CaCl2, 1 mM MgCl2, 10 mM HEPES, 5 mM Tris, 1 mg/ml bovine serum albumin (BSA), pH 7.3). Twenty microliters of uptake buffer with or without testing compounds were added to the cells. Then, 20 microliters of uptake buffer containing ^14C-AMG (100 nCi) were added to the cells. The cell plates were incubated at 37° C., 5% CO2 for 1-2 hours. After washing the cells with uptake buffer, scintillation fluid was added (40 microliters/well) and ^14C-AMG uptake was measured by counting radioactivity using a scintillation coulter (TopCoulter NXT; Packard Instruments).
The IC50 of a compound with regard to a given target is determined by fitting the relevant data, using the Levenburg Marquardt algorithm, to the equation: y=A+((B−A)/(1+((C/x)^D))) wherein A is the minimum y value; B is the maximum y value; C is the IC50; and D is the slope.
`COc1cc(Oc2ccc(Cc3cc([C@@H]4OC(OC)[C@@H](O)[C@H](O)[C@H]4O)ccc3Cl)cc2)nc(OC)n1` (stereo partly drawn) [(2S,3R,4R,5S)-2-{4-Chloro-3-[4-(2,6-dimethoxy-pyrimidin-4-yloxy)-benzyl]-phenyl}-6-methoxy-tetrahydro-pyran-3,4,5-triol]: the IC50 is less than 500 nM.

As for `CCOc1ccc(Cc2cc([C@@H]3O[C@H](Oc4ccccc4)[C@@H](O)[C@H](O)[C@H]3O)ccc2Cl)cc1` [(2S,3R,4R,5S,6R)-2-[4-Chloro-3-(4-ethoxy-benzyl)-phenyl]-6-phenoxy-tetrahydro-pyran-3,4,5-triol], the IC50 is less than 500 nM.

Regarding `CO[C@H]1O[C@@H](c2ccc(Cl)c(Cc3ccc(O[C@@H]4CCOC4)cc3)c2)[C@H](O)[C@@H](O)[C@@H]1O` [(2S,3R,4R,5S,6S)-2-(4-Chloro-3-{4-[(R)-(tetrahydro-furan-3-yl)oxy]-benzyl}-phenyl)-6-methoxy-tetrahydro-pyran-3,4,5-triol], the IC50 was less than 500 nM.

As to `CCOc1ccc(Cc2cc([C@@H]3O[C@H](SCC(N)=O)[C@@H](O)[C@H](O)[C@H]3O)ccc2Cl)cc1` [2-{(2R,3S,4R,5R,6S)-6-[4-Chloro-3-(4-ethoxy-benzyl)-phenyl]-3,4,5-trihydroxy-tetrahydro-pyran-2-ylsulfanyl}-acetamide], the IC50 is less than 500 nM.

As for `COC1O[C@@H](c2ccc(Cl)c(Cc3ccc(OC4CCOCC4)cc3)c2)[C@H](O)[C@@H](O)[C@@H]1O` (stereo partly drawn) [(2S,3R,4R,5S)-2-{4-Chloro-3-[4-(tetrahydro-pyran-4-yloxy)-benzyl]-phenyl}-6-methoxy-tetrahydro-pyran-3,4,5-triol], the IC50 is less than 500 nM.

Take `CCOc1ccc(Cc2cc([C@@H]3OC(OCCOC)[C@@H](O)[C@H](O)[C@H]3O)ccc2Cl)cc1` (stereo partly drawn) [(2S,3R,4R,5S)-2-[4-Chloro-3-(4-ethoxy-benzyl)-phenyl]-6-(2-methoxy-ethoxy)-tetrahydro-pyran-3,4,5-triol]: the IC50 was less than 500 nM.

Take `CCOc1ccc(Cc2cc([C@H]3[C@H](O)[C@@H](O)[C@H](O)CN3Cc3ccccc3)ccc2Cl)cc1` [(2S,3S,4S,5R)-1-Benzyl-2-[4-chloro-3-(4-ethoxy-benzyl)-phenyl]-piperidine-3,4,5-triol]: the IC50 was less than 500 nM.

For `CCOc1ccc(Cc2cc([C@@H]3OC(OCc4ccccc4)[C@@H](O)[C@H](O)[C@H]3O)ccc2Cl)cc1` (stereo partly drawn) [(3S,4R,5R,6S)-2-Benzyloxy-6-[4-chloro-3-(4-ethoxy-benzyl)-phenyl]-tetrahydro-pyran-3,4,5-triol], the IC50 is less than 500 nM.

`CCOc1ccc(Cc2cc([C@@H]3OC(OCCN(C)C)[C@@H](O)[C@H](O)[C@H]3O)ccc2Cl)cc1` (stereo partly drawn) [(2S,3R,4R,5S)-2-[4-Chloro-3-(4-ethoxy-benzyl)-phenyl]-6-(2-dimethylamino-ethoxy)-tetrahydro-pyran-3,4,5-triol]: the IC50 is less than 500 nM.

For the molecule `COC1O[C@@H](c2ccc(Cl)c(Cc3ccc(OC(=S)N(C)C)cc3)c2)[C@H](O)[C@@H](O)[C@@H]1O` (stereo partly drawn) [Dimethyl-thiocarbamic acid O-{4-[2-chloro-5-((2S,3R,4R,5S)-3,4,5-trihydroxy-6-methoxy-tetrahydro-pyran-2-yl)-benzyl]-phenyl} ester], the IC50 was less than 500 nM.

In the case of `CCOc1ccc(Cc2cc([C@@H]3OC(OCCCO)[C@@H](O)[C@H](O)[C@H]3O)ccc2Cl)cc1` (stereo partly drawn) [(2S,3R,4R,5S)-2-[4-Chloro-3-(4-ethoxy-benzyl)-phenyl]-6-(3-hydroxy-propoxy)-tetrahydro-pyran-3,4,5-triol], the IC50 is less than 500 nM.

The term IC50 denotes the concentration that inhibits the measured activity by half.
